{"source": "patent US11021493B2", "about": "“1,4-thiazine dioxide and 1,2,4-thiadiazine dioxide derivatives as beta-secretase inhibitors and methods of use” (AMGEN INC., priority 2016, dated 2021)", "origin": "cited, not measured here", "key": {"[1]": {"system": "BACE", "settings": "nonhuman primates; cited from earlier work"}, "[2]": {"settings": "repeated doses up to 200 mg, phase I clinical trial; cited from earlier work"}, "[3]": {"settings": "higher compound dose given for three months; cited from earlier work"}}, "data": [{"smiles": "C[C@H]1OC[C@]2(c3cc(NC(=O)c4cnc(C(F)F)cn4)ccc3F)N=C(N)SC[C@H]12", "note": "[Example E2609]", "values": [{"measurement": "Aβ peptide levels in the CSF and plasma", "setting": "[1]", "result": "significant reduction"}, {"measurement": "clinical safety", "setting": "[2]", "result": "did not show clinical significant safety concerns"}]}, {"smiles": "C[C@@]1(c2cc(-c3cncnc3)c(F)cc2F)CCSC(N)=N1", "note": "[LY 2811376]", "values": [{"measurement": "eye toxicity", "setting": "[3]", "result": "damaged the pigment epithelium of the rat's eye"}]}]}
